Assay results taken from ChEMBL document CHEMBL1201862, “PubChem BioAssay data set” (2004).
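Step 1: Grow cells in 96-well plates. Step 2: Expose to compound for 48 hours at 5 concentrations. Step 3: Interpolate endpoints linearly; if unreached, use highest concentration. GI50 marks 50% less growth.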 Calls of active or inactive are those of the source. Rule as the data show it: active = GI50 up to about 1.1 µM and inactive = higher.

Assays:
Test in all cases: NCI tumour cell line growth inhibition, 48 h
HL-60 = test system: HL-60
OVCAR-4 = test system: OVCAR-4
XF498 = test system: XF498
SNB-75 = test system: SNB-75
ACHN = test system: ACHN
HT-29 = test system: HT-29
SK-OV-3 = test system: SK-OV-3
SW-620 = test system: SW-620
LXFL 529 = test system: LXFL 529
SK-MEL-28 = test system: SK-MEL-28
DLD-1 = test system: DLD-1
MOLT-4 = test system: MOLT-4
TK-10 = test system: TK-10
LOX IMVI = test system: LOX IMVI
HOP-92 = test system: HOP-92
RPMI-8226 = test system: RPMI-8226
UACC-257 = test system: UACC-257
786-0 = test system: 786-0
NCI-H23 = test system: NCI-H23
M19-MEL = test system: M19-MEL
NCI-H460 = test system: NCI-H460
OVCAR-3 = test system: OVCAR-3
HOP-62 = test system: HOP-62
K562 = test system: K562
RXF 631 = test system: RXF 631
KM12 = test system: KM12
A549 = test system: A549
SNB-19 = test system: SNB-19
SF-295 = test system: SF-295
SK-MEL-2 = test system: SK-MEL-2
NCI-H522 = test system: NCI-H522
SK-MEL-5 = test system: SK-MEL-5
UO-31 = test system: UO-31
IGROV-1 = test system: IGROV-1
COLO 205 = test system: COLO 205
Malme-3M = test system: Malme-3M
CAKI-1 = test system: CAKI-1
EKVX = test system: EKVX
KM-20L2 = test system: KM-20L2
OVCAR-8 = test system: OVCAR-8
M14 = test system: M14
HCC 2998 = test system: HCC 2998
A498 = test system: A498
CCRF-CEM = test system: CCRF-CEM
U-251 = test system: U-251
UACC-62 = test system: UACC-62
SR = test system: SR
RXF 393 = test system: RXF 393
HCT-15 = test system: HCT-15
SF-539 = test system: SF-539
DMS-273 = test system: DMS-273
NCI-H226 = test system: NCI-H226
SNB-78 = test system: SNB-78
SF-268 = test system: SF-268
OVCAR-5 = test system: OVCAR-5
HCT-116 = test system: HCT-116
HOP-18 = test system: HOP-18
SN12C = test system: SN12C

Measured: GI50

COC1=CC(=O)[C@@]2(C)C(C)[C@H](c3ccccc3)[C@H]2C1=O (stereo not given in full)
inactive: HL-60 > 100 µM | OVCAR-4 > 100 µM | XF498 > 100 µM | SNB-75 > 100 µM | ACHN > 100 µM | HT-29 > 100 µM | SK-OV-3 > 100 µM | SW-620 > 100 µM | LXFL 529 > 100 µM | SK-MEL-28 > 100 µM | DLD-1 > 100 µM | MOLT-4 > 100 µM | TK-10 > 100 µM | LOX IMVI > 100 µM | HOP-92 > 100 µM | RPMI-8226 > 100 µM | UACC-257 > 100 µM | 786-0 > 100 µM | NCI-H23 > 100 µM | M19-MEL > 100 µM | NCI-H460 > 100 µM | OVCAR-3 > 100 µM | HOP-62 > 100 µM | K562 > 100 µM | RXF 631 > 100 µM | KM12 > 100 µM | A549 > 100 µM | SNB-19 > 100 µM | SF-295 > 100 µM | SK-MEL-2 > 100 µM | NCI-H522 > 100 µM | SK-MEL-5 > 100 µM | UO-31 > 100 µM | IGROV-1 > 100 µM | COLO 205 > 100 µM | Malme-3M > 100 µM | CAKI-1 > 100 µM | EKVX > 100 µM | KM-20L2 > 100 µM | OVCAR-8 > 100 µM | M14 > 100 µM | HCC 2998 > 100 µM | A498 > 100 µM | CCRF-CEM > 100 µM | U-251 > 100 µM | UACC-62 > 100 µM | SR > 100 µM | RXF 393 > 100 µM | SF-539 > 100 µM | DMS-273 > 100 µM | NCI-H226 > 100 µM | SNB-78 > 10 µM | SF-268 > 100 µM | OVCAR-5 > 100 µM
> 100 µM: HCT-15

c1ccc2c(CNCCCCCCCCCCCCNCc3cccc4ccccc34)cccc2c1
inactive: HL-60 1.47 µM | OVCAR-4 1.58 µM | XF498 1.69 µM | SNB-75 1.79 µM | ACHN 1.91 µM | HT-29 1.64 µM | SK-OV-3 13.3 µM | SW-620 1.79 µM | LXFL 529 1.83 µM | SK-MEL-28 1.95 µM | DLD-1 1.6 µM | MOLT-4 1.22 µM | TK-10 2.14 µM | LOX IMVI 1.22 µM | HOP-92 1.88 µM | UACC-257 1.78 µM | 786-0 1.81 µM | NCI-H23 1.51 µM | M19-MEL 1.81 µM | NCI-H460 1.53 µM | OVCAR-3 1.85 µM | HOP-62 2.14 µM | HCT-116 1.61 µM | KM12 1.61 µM | A549 1.85 µM | SF-295 19.5 µM | SK-MEL-2 1.59 µM | NCI-H522 1.88 µM | SK-MEL-5 1.83 µM | UO-31 1.64 µM | IGROV-1 1.84 µM | COLO 205 > 100 µM | Malme-3M 2.21 µM | HOP-18 2.84 µM | CAKI-1 1.92 µM | EKVX 3.1 µM | KM-20L2 1.84 µM | OVCAR-8 1.63 µM | M14 1.85 µM | A498 6.08 µM | CCRF-CEM 1.26 µM | U-251 1.77 µM | UACC-62 1.82 µM | RXF 393 1.36 µM | SN12C 3.53 µM | SF-539 1.58 µM | DMS-273 91.8 µM | NCI-H226 2.39 µM | SNB-78 1.9 µM | SF-268 2.22 µM | OVCAR-5 1.54 µM
active: RPMI-8226 1.04 µM | K562 0.467 µM | SR 1.11 µM
1.66 µM: HCT-15
